Reference: paper PMC4393935, “A Pharmacokinetic Study of Antimalarial 3,5-Diaryl-2-aminopyridine Derivatives” (Malaria Research and Treatment, 2015)
Like-named read-outs stand apart in the source and are kept apart here.

Key:
[1] = male Sprague Dawley rats, cited from earlier work
[2] = Pharmacokinetic study in C57BL/6 mice after oral and intravenous dosing, blood levels by LC-MS/MS; assay type: in vivo; conditions: for T 1/2 (apparent terminal half-life) / Cmax / half-life / AUC(0-inf) / clearance / Vd: mean ± SD of five mice; for Cmax: read-out: C Max (maximum blood concentration); for half-life: read-out: T 1/2 (apparent terminal half-life); for bioavailability: read-out: BA (oral bioavailability); for AUC(0-inf) / clearance / Vd: mouse; for AUC(0-inf): read-out: AUC0–∞ (total exposure) (converted); for clearance: read-out: CL (blood clearance); for Vd: read-out: Vss (volume of distribution)
Procedure: Male and female C57BL/6 mice (20–30 g) were obtained from the University of Cape Town Medical School Animal Unit. The mice were housed in ventilated cages at room temperature (approximately 22°C) with a constant supply of food and water and were monitored twice daily. The study was authorized by the University of Cape Town's Faculty of Health Science Animal Research Ethics Committee before its commencement (Reference number 012/020). All the work was performed according to the guidelines established by Austin and colleagues.
The compounds (Figure 1) were dissolved in DMSO and diluted further with phosphate buffered saline (PBS) to give a final DMSO concentration of 1%.
Comprehensive PK studies were performed on groups of five animals to determine the pharmacokinetic properties of the test compounds. This involved the oral dosing (200 μL) of 10-week-old C57BL/6 male mice at 20 mg/kg and intravenous dosing (100 μL) under anesthesia at 4 mg/kg via the dorsal penile vein. For the oral dosage a gavage needle was used for the administration of test compounds directly into the lower esophagus or stomach. Blood samples (approximately 30 μL) were collected serially by needle prick on the tail vein near to the tip of the tail at 0, 0.17, 0.5, 1, 2, 3, 5, 7, and 9 hours after dosing. Lithium-heparin-coated tubes were used to collect the blood samples. The collected blood samples were placed on ice immediately after sampling and were frozen at −80°C until analyzed.
The blood samples were brought to room temperature and then mixed by vortexing to ensure homogeneity. Twenty microliters of blood was mixed with 50 μL Milli-Q water and 150 μL acetonitrile. The sample was vortexed for 15 seconds, sonicated for 10 minutes, and centrifuged at 13000 ×g for 5 minutes. The supernatant was transferred to a flat-bottom glass insert and placed in a glass vial for analysis.
The liquid chromatography (LC) system employed was an ultrafast liquid chromatography (UFLC) system (Shimadzu) and the separation of the compounds was performed on a Phenomenex, Luna 5 μm PFP(2), 100 Å, and 50 mm × 2 mm analytical column. For method development, the compounds were prepared at 1 mg/mL stock in methanol and were further diluted with 50% acetonitrile: 0.1% formic acid to make a final concentration of 1 μg/mL. Analyst software version 1.5.2 (AB Sciex) was employed for data acquisition, peak-area integration, and quantitation of compounds in blood samples.
The mobile phase A consisted of 0.1% formic acid in water (v/v) and mobile phase B consisted of acetonitrile. Samples were maintained at 4°C until injection. The flow rate was set at 500 μL/min and the temperature of the column was maintained at 40°C. For the separation of the compounds the mobile phase was increased from 5% to 95% B over 2 minutes and returned to 5% B within 0.1 minutes and then equilibrated for 3 minutes. Calibration curves were derived in each analytical run in duplicate and were employed to extrapolate the concentration of the compounds in the blood samples.
The MS system consisted of an AB Sciex 3200 Q-Trap mass spectrometer which was operated at unit resolution in the multiple reaction monitoring (MRM) mode. The calibration range for all the compounds was between 7.8 and 1000 ng/mL and the accuracy (%Nom) for the calibration curves was between 90.31 and 104.0%.
Noncompartmental analysis was performed on each individual set of data using PK Solutions 2.0 Pharmacokinetic Analysis Software (Summit Research Services, Montrose, USA), which uses an automated Excel-based program. […]

[3] = tested on: human Ether-à-go-go-Related Gene (hERG); set-up: method as in PMID 23189922; conditions: result in words; cited from earlier work
[4] = set-up: method as in PMID 23189922; conditions: result in words; cited from earlier work
P. berghei = tested on: P. berghei; set-up: method as in PMID 23189922; conditions: result in words; cited from earlier work
[5] = male, C57BL/6, mouse, whole blood, iv, 4 mg/kg, IV, 4 mg/kg, blood
[6] = male, C57BL/6, mouse, whole blood, oral, oral 20 mg/kg vs IV 4 mg/kg
[7] = male, C57BL/6, mouse, whole blood, po, 20 mg/kg, oral, 20 mg/kg, blood
[8] = male, C57BL/6, mouse, whole blood, po, 20 mg/kg, oral, 20 mg/kg, blood, read-out: T Max
[9] = male, whole blood, IV, 4 mg/kg, blood
[10] = male, whole blood, oral, 20 mg/kg, blood
[11] = oral, 20 mg/kg, blood, 20 mg/kg

T 1/2 (apparent terminal half-life) ([2]; IV, 4 mg/kg, blood) [h]	Cmax [2, 5] [nM]	half-life [2, 5] [h]	bioavailability [2, 6] [%]	Cmax [2, 7] [nM]	half-life [2, 7] [h]	Tmax [2, 8] [h]	AUC(0-inf) [2, 9] [µM·h]	clearance ([2]; male, whole blood, IV, 4 mg/kg) [mL/min/kg]	Vd ([2]; male, whole blood, IV, 4 mg/kg) [L/kg]	AUC(0-inf) [2, 10] [µM·h]	T 1/2 (apparent terminal half-life) ([2]; oral, 20 mg/kg, blood) [h]	Cmax [2, 11] [nM]	Structure (SMILES)	hERG activity compared to the parent compound 3 [3]	metabolic stability [4]	activity in a P. berghei infected mouse model (P. berghei)	further results
													COc1ccc(-c2cc(-c3ccc(S(C)(=O)=O)cc3)cnc2N)cn1 [Compound 3]				apparent t 1/2 ([1]; dosed intravenously): 8 h; apparent t 1/2 ([1]; dosed orally): 6.5 h; AUC ([1]; intravenous): 789 µM·min; AUC ([1]; oral): 6880 µM·min; clearance rate [1]: 18.3 mL/min/kg; oral bioavailability [1]: > 100%
0.87 ± 0.03	2110 ± 60	0.68 to 0.87	69 ± 19	1900	2.5 to 3	≤ 1	1.72	83.6 ± 12	9.51 ± 1	5.99	2.53 ± 0.1	1920 ± 30	Nc1ncc(-c2ccc(C(=O)N3CCOCC3)cc2)cc1-c1ccc(C(F)(F)F)cc1 [Compound 1]	reduced hERG activity	showed metabolic stability	displayed activity	T Max ([2]; oral, 20 mg/kg, blood): 1 h
0.68 ± 0.6	960 ± 60	0.68 to 0.87	59.7	3300	2.5 to 3	≤ 1	1.75	92.6 ± 19	27 ± 1.3	5.23	2.96 ± 0.2	3340	CNS(=O)(=O)c1ccc(-c2cnc(N)c(-c3ccc(C(F)(F)F)nc3)c2)cc1 [Compound 2]	reduced hERG activity	showed metabolic stability	displayed activity	Tmax ([2]; male, C57BL/6, mouse, whole blood, po, 20 mg/kg, oral, 20 mg/kg, blood, read-out: time to maximum concentration): ≤ 0.5 h; BA (oral bioavailability) ([2]; oral 20 mg/kg vs IV 4 mg/kg): 60 ± 5%
